Here are results for 29 molecules from US9260408B2, “Dihydroquinoline-2-one derivatives” (Hoffmann-La Roche Inc., priority 2011, dated 2016).

Structures can show the parent of a compound that is named as a salt.

The target of test [1] is T1, human CYP11B1 (Homo sapiens, UniProt P15538).
T1 construct: expressed in transfected cells
T1 sequence (P15538 25-503): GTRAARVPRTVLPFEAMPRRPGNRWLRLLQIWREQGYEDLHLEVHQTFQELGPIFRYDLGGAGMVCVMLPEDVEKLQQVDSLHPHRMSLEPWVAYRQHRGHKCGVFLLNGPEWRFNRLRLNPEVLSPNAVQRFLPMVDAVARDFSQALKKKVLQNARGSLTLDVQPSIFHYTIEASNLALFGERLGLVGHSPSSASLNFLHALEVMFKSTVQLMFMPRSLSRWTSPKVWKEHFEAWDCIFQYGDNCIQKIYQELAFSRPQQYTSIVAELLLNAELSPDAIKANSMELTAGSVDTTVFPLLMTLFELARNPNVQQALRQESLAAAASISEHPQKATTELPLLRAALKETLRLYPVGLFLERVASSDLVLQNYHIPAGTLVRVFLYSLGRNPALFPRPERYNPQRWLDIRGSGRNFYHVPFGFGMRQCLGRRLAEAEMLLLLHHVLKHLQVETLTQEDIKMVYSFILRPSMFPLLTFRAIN
The test is described as follows: G-402 cellular enzyme assay, human CYP11B1 (cortisol release, HTRF). The test is classed as cell-based. As to conditions: G-402 cells expressing human CYP11B1; 1 μM Deoxycortisol. A digest of the protocol: (§1)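 G-402 cells stably expressing human CYP11B2 or CYP11B1, in DMEM/F12 with 2.5% charcoal-treated FCS, were incubated 16 h with compound plus 1 μM deoxycorticosterone (CYP11B2) or 1 μM deoxycortisol (CYP11B1). Aldosterone or cortisol in the supernatant measured by HTRF; EC50 from a 4-parameter MMF fit.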
(In general: In TR-FRET formats the signal depends on donor and acceptor labels being close together.)

Test [2] addresses T2, human CYP11B2 (Homo sapiens, UniProt P19099).
T2 construct: expressed in transfected cells
T2 sequence (P19099 25-503): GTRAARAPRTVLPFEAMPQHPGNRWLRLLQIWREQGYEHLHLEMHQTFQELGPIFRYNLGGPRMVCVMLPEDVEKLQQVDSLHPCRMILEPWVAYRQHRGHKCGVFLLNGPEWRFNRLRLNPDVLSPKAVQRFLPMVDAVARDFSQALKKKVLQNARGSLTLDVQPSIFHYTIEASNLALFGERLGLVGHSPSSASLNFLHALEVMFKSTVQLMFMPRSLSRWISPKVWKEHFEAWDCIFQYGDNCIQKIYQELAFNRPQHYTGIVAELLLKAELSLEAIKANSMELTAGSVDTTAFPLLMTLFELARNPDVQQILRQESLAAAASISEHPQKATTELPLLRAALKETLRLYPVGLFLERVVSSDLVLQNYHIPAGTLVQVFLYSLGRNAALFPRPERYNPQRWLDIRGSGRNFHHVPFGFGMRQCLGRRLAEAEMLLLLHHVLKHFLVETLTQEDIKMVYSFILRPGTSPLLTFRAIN
The test is described as follows: G-402 cellular enzyme assay, human CYP11B2 (aldosterone release, HTRF). It counts as cell-based. As to conditions: G-402 cells expressing human CYP11B2; 1 μM Deoxycorticosterone. A digest of the protocol:
as §1

What is called EC50 is the concentration giving half of the maximal effect. Read a low EC50 as higher potency in that assay. Take `CN1C(=O)CCc2cc(-c3cncc(O[C@H]4CCN(C(=O)OC(C)(C)C)C4)c3)c(F)cc21` [Example 52, (S)-3-[5-(7-fluoro-1-methyl-2-oxo-1,2,3,4-tetrahydro-quinolin-6-yl)-pyridin-3-yloxy]-pyrrolidine-1-carboxylic acid tert-butyl ester]: the values for the concentration giving a half-maximal response (EC50) in test [1] and in test [2] were 0.139 µM and 0.03 µM, respectively.
Regarding `CN1C(=O)CCc2cc(-c3cncc(O[C@@H]4CCN(C(=O)OC(C)(C)C)C4)c3)ccc21` [Example 53, (R)-3-[5-(1-Methyl-2-oxo-1,2,3,4-tetrahydro-quinolin-6-yl)-pyridin-3-yloxy]-pyrrolidine-1-carboxylic acid tert-butyl ester], the concentration giving a half-maximal response (EC50) in test [1] was found to be 0.453 µM; in test [2] it was 0.008 µM.
On the same counts, the results for `CCS(=O)(=O)NCc1cncc(-c2ccc3c(c2)CCC(=O)N3)c1` [Example 55, ethanesulfonic acid [5-(2-oxo-1,2,3,4-tetrahydro-quinolin-6-yl)-pyridin-3-ylmethyl]-amide] are 11.1 µM and 0.682 µM.
For `CN1C(=O)CCc2cc(-c3cncc(C4(N)CC4)c3)ccc21` [Example 59, 6-[5-(1-Amino-cyclopropyl)-pyridin-3-yl]-1-methyl-3,4-dihydro-1H-quinolin-2-one] the same measures were 0.71 µM and 0.033 µM.
On the same counts, the results for `CN1C(=O)CCc2cc(-c3cncc(O[C@H]4CCCNC4)c3)ccc21` [Example 61, 1-Methyl-6-[5-((S)-piperidin-3-yloxy)-pyridin-3-yl]-3,4-dihydro-1H-quinolin-2-one] are 20.1 µM and 0.508 µM.
Consider `CN1C(=O)CCc2cc(-c3cncc(OC4CCNCC4)c3)ccc21` [Example 62, 1-Methyl-6-[5-(piperidin-4-yloxy)-pyridin-3-yl]-3,4-dihydro-1H-quinolin-2-one hydrochloride], for which the results for the EC50 in test [1] and in test [2] were 8.54 µM and 0.177 µM, respectively.
For `CN1C(=O)CCc2cc(-c3cncc(OC[C@@H]4CCN4)c3)ccc21` [Example 63, 6-[5-((S)-1-Azetidin-2-ylmethoxy)-pyridin-3-yl]-1-methyl-3,4-dihydro-1H-quinolin-2-one] the same measures were 16 µM and 0.731 µM.
Take `CN1C(=O)CCc2cc(-c3cncc(O[C@@H]4CCNC4)c3)c(F)cc21` [Example 67, 7-Fluoro-1-methyl-6-[5-((R)-pyrrolidin-3-yloxy)-pyridin-3-yl]-3,4-dihydro-1H-quinolin-2-one hydrochloride]: the EC50 in test [1] turned out to be 7.67 µM; in test [2], 0.16 µM.
On the same counts, the results for `CN1C(=O)CCc2cc(-c3cncc(O[C@@H]4CCNC4)c3)ccc21` [Example 68, 1-Methyl-6-[5-((R)-pyrrolidin-3-yloxy)-pyridin-3-yl]-3,4-dihydro-1H-quinolin-2-one hydrochloride] are 33.7 µM and 0.35 µM.
For `CN1C(=O)CCc2cc(-c3cncc(C4(N)COC4)c3)ccc21` [Example 69, 6-[5-(3-Amino-oxetan-3-yl)-pyridin-3-yl]-1-methyl-3,4-dihydro-1H-quinolin-2-one hydrochloride] the same measures were 3.49 µM and 0.411 µM.
For `CN1C(=O)CCc2cc(-c3cncc(OC4CNC4)c3)ccc21` [Example 70, 6-[5-(Azetidin-3-yloxy)-pyridin-3-yl]-1-methyl-3,4-dihydro-1H-quinolin-2-one hydrochloride] the same measures were 15.6 µM and 0.202 µM.
On to `CN1C(=O)CCc2cc(-c3cncc(O[C@H]4CC[C@H](N)CC4)c3)ccc21` [Example 71, 6-[5-((trans)-4-amino-cyclohexyloxy)-pyridin-3-yl]-1-methyl-3,4-dihydro-1H-quinolin-2-one hydrochloride], for which the EC50 in test [1] is 2.5 µM; in test [2] it was 0.081 µM.
In the case of `CN1C(=O)CCc2cc(-c3cncc(C(C)(C)N)c3)ccc21` [Example 72, 6-[5-(1-Amino-1-methyl-ethyl)-pyridin-3-yl]-1-methyl-3,4-dihydro-1H-quinolin-2-one], the concentration giving a half-maximal response (EC50) in test [1] came out at 0.101 µM; in test [2], 0.007 µM.
For `CN1C(=O)CCc2cc(-c3cncc(CN)c3)c(F)cc21` [Example 73, 6-(5-Aminomethyl-pyridin-3-yl)-7-fluoro-1-methyl-3,4-dihydro-1H-quinolin-2-one] the same measures were 0.575 µM and 0.017 µM.
On the same counts, the results for `Cc1noc(C)c1C(=O)NCc1cncc(-c2ccc3c(c2)CCC(=O)N3C)c1` [Example 75, 3,5-Dimethyl-isoxazole-4-carboxylic acid [5-(1-methyl-2-oxo-1,2,3,4-tetrahydro-quinolin-6-yl)-pyridin-3-ylmethyl]-amide] are 0.509 µM and 0.008 µM.
On the same counts, the results for `CN1C(=O)CCc2cc(-c3cncc(O[C@H]4CCN(C(=O)C5CC5)C4)c3)ccc21` [Example 76, 6-[5-((S)-1-Cyclopropanecarbonyl-pyrrolidin-3-yloxy)-pyridin-3-yl]-1-methyl-3,4-dihydro-1H-quinolin-2-one] are 0.452 µM and 0.023 µM.
Turning to `CC(C)CC(=O)NCc1cncc(-c2ccc3c(c2)CCC(=O)N3C)c1` [Example 77], the EC50 in test [1] is 0.223 µM; in test [2] it was 0.042 µM.
For `CN1C(=O)CCc2cc(-c3cncc(CNC(=O)CC(F)(F)F)c3)ccc21` [Example 78] the same measures were 1.14 µM and 0.121 µM.
As to `CN1C(=O)CCc2cc(-c3cncc(CNC(=O)C(C)(C)O)c3)ccc21` [Example 79], the values for the half-maximal effective concentration (EC50) in test [1] and in test [2] were 0.302 µM and 0.035 µM, respectively.
Take `Cc1nnc(C(=O)NCc2cncc(-c3ccc4c(c3)CCC(=O)N4C)c2)o1` [Example 80]: the EC50 stood at 0.493 µM in test [1] and 0.043 µM in test [2].
On the same counts, the results for `CCC(=O)N1CCC[C@H](Oc2cncc(-c3ccc4c(c3)CCC(=O)N4C)c2)C1` [Example 81] are 4.64 µM and 0.172 µM.
Regarding `COc1ncc(C(=O)NCc2cncc(-c3ccc4c(c3)CCC(=O)N4C)c2)cn1` [Example 82], the concentration for a half-maximal effect (EC50) amounted to 0.02 µM in test [1] and 0.008 µM in test [2].
For `CN1C(=O)CCc2cc(-c3cncc(CNC(=O)c4nccn4C)c3)ccc21` [Example 83] the same measures were 0.046 µM and 0.009 µM.
On the same counts, the results for `CN1C(=O)CCc2cc(-c3cncc(CNC(=O)c4coc(C(F)(F)F)c4)c3)ccc21` [Example 84] are 0.526 µM and 0.034 µM.
On to `CN1C(=O)CCc2cc(-c3cncc(CNC(=O)c4cccnn4)c3)ccc21` [Example 85], for which the EC50 in test [1] came to 0.048 µM; in test [2] it was 0.003 µM.
Regarding `CN1C(=O)CCc2cc(-c3cncc(CNC(=O)c4cncnc4)c3)ccc21` [Example 86], the EC50 in test [1] was 0.108 µM; in test [2], 0.004 µM.
In the case of `CN1C(=O)CCc2cc(-c3cncc(CNC(=O)c4cnn(C)c4)c3)ccc21` [Example 87, 1-Methyl-1H-pyrazole-4-carboxylic acid [5-(1-methyl-2-oxo-1,2,3,4-tetrahydro-quinolin-6-yl)-pyridin-3-ylmethyl]-amide], the EC50 in test [1] worked out at 1.07 µM; in test [2], 0.017 µM.
Consider `CCC(=O)N1CCC(Oc2cncc(-c3ccc4c(c3)CCC(=O)N4C)c2)CC1` [Example 88], for which the EC50 was 0.013 µM in test [1] and 0.001 µM in test [2].
For `CN1C(=O)CCc2cc(-c3cncc(CNC(=O)c4ccnnc4)c3)ccc21` [Example 89], the concentration giving a half-maximal response (EC50) in test [1] was 0.276 µM; in test [2], 0.014 µM.
